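The compound was tested at five concentrations on cells cultured in 96-well plates, with a 48-hour exposure period. GI50 = concentration required for 50% inhibition of growth.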 The source made the active and inactive calls. No stated cut-off is given here; in the data, active = GI50 up to about 1.1 µM and inactive = higher.
Assays:
Assay in all cases: growth of human tumour cells (NCI), 48 h
UACC-62 = system: UACC-62
K562 = system: K562
UACC-257 = system: UACC-257
MDA-MB-435 = system: MDA-MB-435
OVCAR-4 = system: OVCAR-4
SF-539 = system: SF-539
SK-OV-3 = system: SK-OV-3
M14 = system: M14
SW-620 = system: SW-620
COLO 205 = system: COLO 205
KM12 = system: KM12
SK-MEL-28 = system: SK-MEL-28
OVCAR-3 = system: OVCAR-3
T47D = system: T47D
CAKI-1 = system: CAKI-1
MDA-MB-231 = system: MDA-MB-231
NCI-H522 = system: NCI-H522
SR = system: SR
RPMI-8226 = system: RPMI-8226
MDA-N = system: MDA-N

Measured: GI50

O=C(NC1CCCCC1)c1nn[nH]c1Cl
inactive: UACC-62 > 100 µM | K562 > 100 µM | UACC-257 > 100 µM | MDA-MB-435 > 100 µM | OVCAR-4 > 100 µM | SF-539 > 100 µM | SK-OV-3 > 100 µM | M14 > 100 µM | SW-620 > 100 µM | COLO 205 > 100 µM | KM12 > 100 µM | SK-MEL-28 > 100 µM | OVCAR-3 > 100 µM | T47D > 100 µM | CAKI-1 > 100 µM | MDA-MB-231 > 100 µM

CCOc1ccc(/C=C2\NC(=S)N(/C=C3\C(=O)Oc4ccccc4C3=O)C2=O)cc1
inactive: UACC-62 17.5 µM | UACC-257 26.6 µM | MDA-MB-435 28.8 µM | OVCAR-4 28.1 µM | SF-539 16.3 µM | SK-OV-3 17.9 µM | M14 31.6 µM | SW-620 37.8 µM | COLO 205 15.2 µM | KM12 20.7 µM | SK-MEL-28 36.8 µM | NCI-H522 20.7 µM | OVCAR-3 21.1 µM | CAKI-1 23.9 µM | MDA-MB-231 20.4 µM

B.CC(=O)OC1CN2CCC1CC2 (stereo not given)
inactive: UACC-62 > 100 µM | K562 > 100 µM | MDA-MB-435 > 100 µM | SF-539 > 100 µM | SK-OV-3 > 100 µM | SR > 100 µM | M14 > 100 µM | SW-620 > 100 µM | KM12 > 100 µM | SK-MEL-28 > 100 µM | OVCAR-3 > 100 µM | T47D > 100 µM | MDA-MB-231 > 100 µM

Cc1cc(OC(=O)NCn2cc(-c3ccccc3)nn2)ccc1Cl
inactive: K562 76.4 µM | UACC-257 > 100 µM | OVCAR-4 78.7 µM | SF-539 54.2 µM | SR 83 µM | M14 67.3 µM | SW-620 > 100 µM | COLO 205 > 100 µM | RPMI-8226 78.2 µM | KM12 > 100 µM | SK-MEL-28 > 100 µM | NCI-H522 54.2 µM | CAKI-1 83.2 µM | MDA-MB-231 > 100 µM

Cc1ccc(N2CCc3c(C)c(C#N)c4nc5ccccc5n4c32)cc1
inactive: UACC-62 27 µM | UACC-257 > 100 µM | MDA-MB-435 6.27 µM | OVCAR-4 > 100 µM | SF-539 39.3 µM | SK-OV-3 59.3 µM | SR 2.94 µM | SW-620 85.9 µM | COLO 205 90.6 µM | SK-MEL-28 > 100 µM | NCI-H522 9.04 µM | OVCAR-3 > 100 µM | CAKI-1 70.6 µM

CC[C@@H]1CC[C@@H]2[C@H](CC[C@]3(C)[C@@H](OS(=O)(=O)c4ccc(C)cc4)CC[C@@H]23)[C@H]1COS(=O)(=O)c1ccc(C)cc1
inactive: K562 > 100 µM | UACC-257 > 100 µM | MDA-MB-435 > 100 µM | OVCAR-4 > 100 µM | SF-539 > 100 µM | SR > 100 µM | M14 > 100 µM | SW-620 > 100 µM | RPMI-8226 > 100 µM | SK-MEL-28 > 100 µM | MDA-N > 100 µM

CC(C)(O)CCC(O)C(C)(O)C1CCC2(O)C3=CC(=O)C4(O)CC(O)C(O)CC4(C)C3CCC12C.CC(C)(O)CCC(O)C(C)(O)C1CCC2(O)C3=CC(=O)C4CC(O)C(O)CC4(C)C3CCC12C (stereo not given)
inactive: UACC-62 > 100 µM | K562 > 100 µM | UACC-257 > 100 µM | MDA-MB-435 > 100 µM | OVCAR-4 > 100 µM | SF-539 > 100 µM | SK-OV-3 > 100 µM | SR > 100 µM | M14 > 100 µM | SW-620 > 100 µM | COLO 205 > 100 µM | KM12 > 100 µM | SK-MEL-28 > 100 µM | NCI-H522 > 100 µM | OVCAR-3 > 100 µM | T47D > 100 µM | CAKI-1 > 100 µM | MDA-MB-231 > 100 µM

— ChEMBL document CHEMBL1201862, “PubChem BioAssay data set” (2004)
